Assay results as given in US20180180595A1, “CELL LINES MUTANT FOR PATCHED 1 AND PATCHED 2 AND METHODS OF USE THEREOF” (The Regents of the University of California, priority 2015, published 2018).

System: hedgehog response pathway
Assay: Hh pathway response in neuralized embryoid bodies from Ptch1-/-;Ptch2-/- mESCs
Assay type: cell-based, murine
Conditions: Ptch1-/-;Ptch2-/- mESCs differentiated into NEBs; agent added exogenously
From the text: In the absence of Ptch1, Ptch2 can mediate some measure of the Shh response. Given the contribution of both Ptch1 and Ptch2 to the interpretation of the Shh signal, it was reasoned that a Ptch1^−/−;Ptch2^−/− genetic background was essential to assess the aggregate contribution of Ptch1/2 to Shh signaling. […] The Ptch1^−/−;Ptch2^−/−;Shh^−/− assessed here have a LacZ under the control of the Ptch1 promoter (Goodrich et al., Science. 1997, 277:1109-1113). Since the upregulation of Ptch1 is a common response to the activation of the Hh response pathway, induction of LacZ in NEBs was assessed. A strong induction of LacZ was observed after three days into the differentiation protocol, consistent with the ventral identity observed using neural markers.

CNC1CCC(N(Cc2cccc(-c3ccncc3)c2)C(=O)c2sc3ccccc3c2Cl)CC1 (stereo not shown) [SAG]
induction of the hedgehog response pathway: could not be further induced
